Results from US9167822B2, “Antifungal compositions” (DSM IP ASSETS B.V., priority 2012, dated 2015).
Several values for one entry are separate records, joined by “and”; a condition that tells them apart may be missing. Identical values can stand only once.

Tests used:
Penicillium italicum [1] = assay: Treatment of apples wounded and inoculated with Penicillium italicum, then dipped; type: in vivo; conditions: for Number of moulded apples/total number of 10 apples: 500 ppm natamycin; for Number of moulded apples per total of 10 apples: 250 ppm natamycin
Protocol: Ten fresh, organic apples were used per treatment. Each apple was wounded once using a cork borer according to the method described by de Lapeyre de Bellaire and Dubois (1987). Subsequently, each wound was inoculated with 10 μl of a Penicillium italicum suspension containing 1×10^6 of spores/ml. […] The pH of the compositions was 4. A composition without natamycin or bixafen was used as control. The treated apples were incubated in a closed box in the dark at 20° C. […]
During incubation, the treated apples were assessed on mould growth according to the two methods described in Example 3. […]

Penicillium italicum [2] = assay: Treatment of mandarins wounded and inoculated with Penicillium italicum, then dipped; type: in vivo
Protocol: Ten fresh, organic mandarins were used per treatment. The peel of each mandarin was wounded once using a cork borer according to the method described by de Lapeyre de Bellaire and Dubois (1987). Subsequently, each wound was inoculated with 10 μl of a Penicillium italicum suspension containing 1×10^5 of spores/ml. […] The pH of the compositions was 4.
The treated mandarins were incubated in a closed box in the dark at 20° C. and assessed on mould growth during incubation.

Botrytis cinerea [3] = assay: Treatment of strawberries: wounded, dipped in antifungal composition, then inoculated with Botrytis cinerea; type: in vivo; conditions: 1000 ppm bixafen or both
Protocol: (§1) Ten fresh, organic strawberries were used per treatment. Each strawberry was wounded with a 0.5 mm long cut and each wound was inoculated with 10 μl of a Botrytis cinerea suspension containing 1×10^5 of spores/ml. […] The pH of the compositions was 4. A composition without natamycin or bixafen was used as control. The treated strawberries were incubated in a closed box in the dark at 20° C.
(§2) During incubation, mould growth on the strawberries was assessed in a twofold manner: (i) the number of moulded strawberries per total of 10 strawberries was counted; and (ii) the antifungal activity (in %) of the individual and combined active ingredients was determined by calculating the reduction in mould growth observed on the strawberries treated with the antifungal composition in comparison to the mould growth on the strawberries treated with the control composition. The expected antifungal activity (E in %) of the combined antifungal composition comprising both active ingredients was calculated according to the Colby equation (Colby, 1967): E=X+Y−[(X·Y)/100] wherein X and Y are the observed antifungal activities (in %) of the individual active ingredients X and Y, respectively. If the observed antifungal activity (O in %) of the combination exceeds the expected antifungal activity (E in %) of the combination and the synergy factor O/E is thus >1.0, the combined application of the active ingredients leads to a synergistic antifungal effect.
After treatment, each strawberry was inoculated with 10 μl of a Botrytis cinerea suspension containing 1×10^5 of spores/ml. The treated strawberries were assessed on mould growth according to the two methods described in Example 3.

Botrytis cinerea [4] = assay: Treatment of strawberries: wounded, inoculated with Botrytis cinerea, then dipped in antifungal composition; type: in vivo
Protocol: as §1, §2
The treated strawberries were assessed on mould growth. The antifungal activity (in %) of the individual and combined active ingredients was determined according to the method described in Example 3. […]

Penicillium italicum [5] = assay: In vitro antifungal activity, 96-well microtiter plates; type: cell-based; conditions: 25° C., day 10, 1.25 ppm natamycin, 25 ppm bixafen or both
Protocol: Subsequently, 100 μl of a Botrytis cinerea suspension prepared in PCB medium was used to inoculated each well with 2.5×10^3 spores/ml.
After incubation of the microtiter plates at 25° C., the in vitro antifungal activity (%) of the individual active ingredients was assessed by calculating the reduction in mould growth observed in the presence of the active ingredient in comparison to the mould growth observed in the absence of the active ingredient. The expected antifungal activity (E in %) of the active ingredient combination was calculated according to the Colby equation (Colby, 1967): E=X+Y−[(X·Y)/100] wherein X and Y are the observed antifungal activities (in %) of the individual active ingredients X and Y, respectively. If the observed antifungal activity (O in %) of the combination exceeds the expected antifungal activity (E in %) of the combination and the resulting synergy factor O/E is thus >1.0, the combined application of the active ingredients leads to a synergistic antifungal effect.
Furthermore, Penicillium italicum was used for inoculation.

[6] = day 3, 500 ppm natamycin, 2000 ppm bixafen or both
[7] = day 6, 250 ppm natamycin, 500 ppm bixafen or both
[8] = day 6, 500 ppm natamycin, 1000 ppm bixafen or both
[9] = day 6, 500 ppm natamycin, 2000 ppm bixafen or both
[10] = day 7, 250 ppm natamycin, 500 ppm bixafen or both
[11] = day 9, 250 ppm natamycin, 500 ppm bixafen or both
[12] = day 9, 500 ppm natamycin, 1000 ppm bixafen or both
[13] = day 9, 500 ppm natamycin, 2000 ppm bixafen or both
[14] = day 11, 500 ppm natamycin, 2000 ppm bixafen or both
[15] = day 14, 500 ppm natamycin, 1000 ppm bixafen or both
[16] = day 14, 500 ppm natamycin, 2000 ppm bixafen or both
[17] = day 4, 250 ppm natamycin, 250 ppm bixafen or both
[18] = day 4, 250 ppm natamycin, 500 ppm bixafen or both
[19] = day 4, 500 ppm natamycin, 2000 ppm bixafen or both
[20] = day 6, 250 ppm natamycin, 250 ppm bixafen or both
[21] = day 7, 250 ppm natamycin, 250 ppm bixafen or both

## Cn1cc(C(=O)Nc2ccc(F)cc2-c2ccc(Cl)c(Cl)c2)c(C(F)F)n1 [Bixafen, bixafen]
Penicillium italicum [1]; Day 3, 20° C., 1000 ppm bixafen or both
  Number of moulded apples/total number of 10 apples: 6 and 6/10
Penicillium italicum [1]; Day 3-4, 20° C., 2000 ppm bixafen or both
  Number of moulded apples/total number of 10 apples: 5/10
Penicillium italicum [1]; Day 4, 20° C., 1000 ppm bixafen or both
  Number of moulded apples/total number of 10 apples: 6 and 6/10
Penicillium italicum [1]; Day 6, 20° C., 500 ppm bixafen or both
  Number of moulded apples per total of 10 apples: 10 and 10/10
Penicillium italicum [1]; Day 6, 20° C., 1000 ppm bixafen or both
  Number of moulded apples/total number of 10 apples: 8 and 8/10
Penicillium italicum [1]; Day 6, 20° C., 2000 ppm bixafen or both
  Number of moulded apples/total number of 10 apples: 8 and 8/10
Penicillium italicum [1]; Day 6-9, 20° C., 250 ppm bixafen or both
  Number of moulded apples per total of 10 apples: all and 10/10
Penicillium italicum [1]; Day 7, 20° C., 500 ppm bixafen or both
  Number of moulded apples per total of 10 apples: 10 and 10/10
Penicillium italicum [1]; Day 7, 20° C., 1000 ppm bixafen or both
  Number of moulded apples/total number of 10 apples: 9 and 9/10
Penicillium italicum [1]; Day 7, 20° C., 2000 ppm bixafen or both
  Number of moulded apples/total number of 10 apples: 8 and 8/10
Penicillium italicum [1]; Day 9, 20° C., 500 ppm bixafen or both
  Number of moulded apples per total of 10 apples: 10 and 10/10
Penicillium italicum [1]; Day 9-14, 20° C., 1000 ppm bixafen or both
  Number of moulded apples/total number of 10 apples: all and 10/10
Penicillium italicum [1]; Day 9-14, 20° C., 2000 ppm bixafen or both
  Number of moulded apples/total number of 10 apples: all and 10/10
Penicillium italicum [1]; Day 11-15, 20° C., 250 ppm bixafen or both
  Number of moulded apples per total of 10 apples: all and 10/10
Penicillium italicum [1]; day 3, 500 ppm natamycin, 1000 ppm bixafen or both
  Observed antifungal activity O (%): 47%
Penicillium italicum [1]; [6]
  Observed antifungal activity O (%): 60%
Penicillium italicum [1]; day 6, 250 ppm natamycin, 250 ppm bixafen or both (bixafen 500 ppm)
  Observed antifungal activity O (%): 17%
Penicillium italicum [1]; [7]
  Observed antifungal activity O (%): 33%
Penicillium italicum [1]; [8]
  Observed antifungal activity O (%): 44%
Penicillium italicum [1]; [9]
  Observed antifungal activity O (%): 39%
Penicillium italicum [1]; [10]
  Observed antifungal activity O (%): 39%
Penicillium italicum [1]; day 9, 250 ppm natamycin, 250 ppm bixafen or both (bixafen 500 ppm)
  Observed antifungal activity O (%): 13%
Penicillium italicum [1]; [11]
  Observed antifungal activity O (%): 17%
Penicillium italicum [1]; [12]
  Observed antifungal activity O (%): 38%
Penicillium italicum [1]; [13]
  Observed antifungal activity O (%): 29%
Penicillium italicum [1]; day 11, 250 ppm natamycin, 250 ppm bixafen or both (bixafen 500 ppm)
  Observed antifungal activity O (%): 0%
Penicillium italicum [1]; day 11, 500 ppm natamycin, 1000 ppm bixafen or both
  Observed antifungal activity O (%): 30%
Penicillium italicum [1]; [14]
  Observed antifungal activity O (%): 30%
Penicillium italicum [1]; day 14, 250 ppm natamycin, 250 ppm bixafen or both (bixafen 500 ppm)
  Observed antifungal activity O (%): 6%
Penicillium italicum [1]; [15]
  Observed antifungal activity O (%): 21%
Penicillium italicum [1]; [16]
  Observed antifungal activity O (%): 36%
Penicillium italicum [2]; day 3, 250 ppm natamycin, 250 ppm bixafen or both
  Observed antifungal activity O (%): 65%
Penicillium italicum [2]; [17]
  Observed antifungal activity O (%): 27%
Penicillium italicum [2]; [18]
  Observed antifungal activity O (%): 40%
Penicillium italicum [2]; day 4, 500 ppm natamycin, 1000 ppm bixafen or both
  Observed antifungal activity O (%): 37%
Penicillium italicum [2]; [19]
  Observed antifungal activity O (%): 47%
Penicillium italicum [2]; [20]
  Observed antifungal activity O (%): 28%
Penicillium italicum [2]; [7]
  Observed antifungal activity O (%): 26%
Penicillium italicum [2]; [8]
  Observed antifungal activity O (%): 22%
Penicillium italicum [2]; [9]
  Observed antifungal activity O (%): 32%
Penicillium italicum [2]; [21]
  Observed antifungal activity O (%): 10%
Penicillium italicum [2]; [10]
  Observed antifungal activity O (%): 10%
Penicillium italicum [2]; day 7, 500 ppm natamycin, 1000 ppm bixafen or both
  Observed antifungal activity O (%): 6%
Penicillium italicum [2]; day 9, 250 ppm natamycin, 250 ppm bixafen or both
  Observed antifungal activity O (%): 0%
Penicillium italicum [2]; [11]
  Observed antifungal activity O (%): 0%
Penicillium italicum [2]; [12]
  Observed antifungal activity O (%): 2%
Penicillium italicum [2]; [13]
  Observed antifungal activity O (%): 7%
Penicillium italicum [2]; day 11, 250 ppm natamycin, 500 ppm bixafen or both
  Observed antifungal activity O (%): 0%
Penicillium italicum [2]; [14]
  Observed antifungal activity O (%): 9%
Penicillium italicum [2]; day 13, 250 ppm natamycin, 500 ppm bixafen or both
  Observed antifungal activity O (%): 0%
Penicillium italicum [2]; [15]
  Observed antifungal activity O (%): 0%
Penicillium italicum [2]; [16]
  Observed antifungal activity O (%): 3%
Penicillium italicum [2]; day 15, 250 ppm natamycin, 500 ppm bixafen or both
  Observed antifungal activity O (%): 0%
Penicillium italicum [2]; day 15, 500 ppm natamycin, 1000 ppm bixafen or both
  Observed antifungal activity O (%): 0%
Penicillium italicum [2]; day 15, 500 ppm natamycin, 2000 ppm bixafen or both
  Observed antifungal activity O (%): 0%
Botrytis cinerea [3]; day 3, 500 ppm natamycin
  Observed antifungal activity O (%): 72%
Botrytis cinerea [3]; day 5, 20° C., 250 ppm natamycin
  Number of moulded wounds/total number of 10 wounds: 8 and 8/10
Botrytis cinerea [3]; day 5, 500 ppm natamycin
  Observed antifungal activity O (%): 55%
Botrytis cinerea [3]; day 6, 500 ppm natamycin
  Observed antifungal activity O (%): 35%
Botrytis cinerea [4]; Day 3, 20° C., 250 ppm natamycin, 250 ppm bixafen or both
  Number of moulded strawberries/total number of 10 strawberries: 9 and 9/10
Botrytis cinerea [4]; Day 3, 20° C., 500 ppm natamycin, 2000 ppm bixafen or both
  Number of moulded strawberries/total number of 10 strawberries: 8 and 8/10
Botrytis cinerea [4]; Day 4, 20° C., 250 ppm natamycin, 250 ppm bixafen or both
  Number of moulded strawberries/total number of 10 strawberries: 9 and 9/10
Botrytis cinerea [4]; Day 4, 20° C., 500 ppm natamycin, 2000 ppm bixafen or both
  Number of moulded strawberries/total number of 10 strawberries: 9 and 9/10
Botrytis cinerea [4]; Day 5, 20° C., 250 ppm natamycin, 250 ppm bixafen or both
  Number of moulded strawberries/total number of 10 strawberries: 10 and 10/10
Botrytis cinerea [4]; Day 5-6, 20° C., 500 ppm natamycin, 2000 ppm bixafen or both
  Number of moulded strawberries/total number of 10 strawberries: 10 and 10/10
Botrytis cinerea [4]; [6]
  Observed antifungal activity O (%): 62%
Botrytis cinerea [4]; [17]
  Observed antifungal activity O (%): 47%
Botrytis cinerea [4]; [18]
  Observed antifungal activity O (%): 65%
Botrytis cinerea [4]; [19]
  Observed antifungal activity O (%): 55%
Botrytis cinerea [4]; day 5, 250 ppm natamycin, 250 ppm bixafen or both
  Observed antifungal activity O (%): 33%
Botrytis cinerea [4]; day 5, 500 ppm natamycin, 2000 ppm bixafen or both
  Observed antifungal activity O (%): 34%
Botrytis cinerea [4]; [20]
  Observed antifungal activity O (%): 23%
Botrytis cinerea [4]; [7]
  Observed antifungal activity O (%): 33%
Botrytis cinerea [4]; [9]
  Observed antifungal activity O (%): 27%
Botrytis cinerea [4]; [21]
  Observed antifungal activity O (%): 10%
Botrytis cinerea [4]; [10]
  Observed antifungal activity O (%): 12%
Botrytis cinerea [4]; day 7, 500 ppm natamycin, 2000 ppm bixafen or both
  Observed antifungal activity O (%): 12%
Botrytis cinerea [4]; [11]
  Observed antifungal activity O (%): 5%
Botrytis cinerea [4]; [13]
  Observed antifungal activity O (%): 3%
Botrytis cinerea [4]; day 10, 250 ppm natamycin, 500 ppm bixafen or both
  Observed antifungal activity O (%): 0%
Penicillium italicum [5]
  Observed antifungal activity O (%): 50%
